{"source": "patent US7368420B1", "about": "“Akt compositions for enhancing survival of cells” (Caritas St. Elizabeth's Medical Center of Boston, Inc., priority 1998, dated 2008)", "key": {"C2C12 cells [1]": {"tested_on": "C2C12 cells", "assay": "Flow cytometry (FACS) cell cycle analysis during myogenic differentiation", "type": "cell-based, murine", "conditions": "percentage of cells; differentiation media, 0.5 mM oligonucleotide, 24 hours; DNA content by FACS"}, "p21": {"tested_on": "p21", "assay": "Western immunoblot of C2C12 lysates, anti-p21", "type": "cell-based, murine", "conditions": "differentiation media with Lipofectin, 24 hours"}, "Cdk4": {"tested_on": "Cdk4", "assay": "Western immunoblot of C2C12 lysates, anti-Cdk4", "type": "cell-based, murine", "conditions": "differentiation media with Lipofectin, 24 hours"}, "C2C12 cells [2]": {"tested_on": "C2C12 cells", "type": "cell-based, murine"}, "Akt [3]": {"tested_on": "Akt", "sequence (P31750 whole entry)": "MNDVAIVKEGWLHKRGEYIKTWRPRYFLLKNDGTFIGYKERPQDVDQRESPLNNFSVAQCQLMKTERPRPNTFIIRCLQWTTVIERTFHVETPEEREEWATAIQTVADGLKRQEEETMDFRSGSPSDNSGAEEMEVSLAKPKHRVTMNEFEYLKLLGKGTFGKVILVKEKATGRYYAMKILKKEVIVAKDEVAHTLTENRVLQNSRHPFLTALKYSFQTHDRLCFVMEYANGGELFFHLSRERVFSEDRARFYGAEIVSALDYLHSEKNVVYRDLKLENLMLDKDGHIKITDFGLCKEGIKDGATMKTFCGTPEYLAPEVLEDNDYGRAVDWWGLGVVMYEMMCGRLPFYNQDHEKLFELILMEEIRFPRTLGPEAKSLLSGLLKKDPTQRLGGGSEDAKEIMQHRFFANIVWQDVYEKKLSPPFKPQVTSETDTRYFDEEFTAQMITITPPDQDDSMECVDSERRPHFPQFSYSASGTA", "type": "cell-based, murine"}, "cardiac myocytes": {"tested_on": "cardiac myocytes", "assay": "Hoechst 33342 staining for pyknotic nuclei in cardiac myocytes", "type": "cell-based, rat", "conditions": "serum-free media with IGF-1"}, "Akt [4]": {"tested_on": "Akt", "assay": "Akt kinase assay (histone H2B) in cardiac myocyte lysates", "type": "cell-based, rat", "conditions": "serum-deprived, 50 ng/ml IGF-1, 15 min"}, "[5]": {"tested_on": "neonatal rat cardiac myocytes", "assay": "Neonatal cardiac myocyte viability, trypan-blue exclusion assay", "type": "cell-based"}, "cardiomyocytes": {"tested_on": "cardiomyocytes", "assay": "TUNEL analysis of cultured cardiomyocytes", "type": "cell-based, rat", "conditions": "increasing concentrations of IGF-1, mock- and Adeno-β-gal-transfected cells, 48 hours"}, "Akt2": {"tested_on": "Akt2", "assay": "Akt2 kinase assay (histone H2B) in HUVEC lysates", "type": "cell-based, human", "conditions": "serum-deprived HUVEC, VEGF 100 ng/ml, 15 min"}, "HUVECs [6]": {"tested_on": "HUVECs", "assay": "HUVEC cell viability, Trypan-blue exclusion assay", "type": "cell-based, human", "conditions": "100 ng/ml VEGF, serum-free DMEM, 21 hours"}, "HUVECs [7]": {"tested_on": "HUVECs", "assay": "HUVEC plasmid co-transfection cell-death assay (surviving β-galactosidase-positive cells)", "type": "cell-based, human", "conditions": "25 ng/ml VEGF, serum-free 21 hrs, control plasmid"}}, "note": "Entries after “also recorded” stand apart in the source; their conditions may differ.", "data": [{"substance": "5′-TGG ATC CGA CAT GTC AGA-3′ (TGGATCCGACATGTCAGA; all phosphorothioate, sugars by position and methylation of C not given here) [Control]", "values": [{"measurement": "Cell cycle phase G0/G1", "setting": "C2C12 cells [1]", "value": 67}, {"measurement": "Cell cycle phase G2/M", "setting": "C2C12 cells [1]", "value": 8}, {"measurement": "Cell cycle phase S", "setting": "C2C12 cells [1]", "value": 25}]}, {"substance": "5′-TGTCAGGCTGGTCTGCCTCC-3′ (antisense TGTCAGGCTGGTCTGCCTCC; chemistry not given here) [p21-AS]", "values": [{"measurement": "Cell cycle phase G0/G1", "setting": "C2C12 cells [1]", "value": 38}, {"measurement": "Cell cycle phase G2/M", "setting": "C2C12 cells [1]", "value": 17}, {"measurement": "Cell cycle phase S", "setting": "C2C12 cells [1]", "value": 45}, {"measurement": "induction of p21", "setting": "p21", "value": "markedly inhibited the induction of p21"}, {"measurement": "cdk4 expression", "setting": "Cdk4", "value": "no significant effect on cdk4"}, {"measurement": "cell-death versus control cultures", "setting": "C2C12 cells [2]", "value": "Markedly enhanced cell-death"}, {"measurement": "Akt expression", "setting": "Akt [3]", "value": "statistically significant reduction in Akt expression"}]}, {"substance": "IGF-1: Insulin-like growth factor-1, purchased from Gibco BRL", "values": [{"measurement": "incidence of pyknotic nuclei", "setting": "cardiac myocytes", "value": "suppressed the incidence of pyknotic nuclei"}, {"measurement": "Akt activity (phosphorylation of histone H2B)", "setting": "Akt [4]", "value": "induced the phosphorylation of histone H2B"}, {"measurement": "time cardiac myocyte viability was sustained", "setting": "[5]; 50 ng/ml IGF-1, serum-depleted", "value": "more than 48 hours"}, {"measurement": "cardiac myocyte viability / cytoprotection by IGF-1", "setting": "[5]; serum-free media, up to 72 hours", "value": "dependent on the dose of IGF-1; also recorded: maintained"}, {"measurement": "frequency of myocyte apoptosis (TUNEL)", "setting": "cardiomyocytes", "value": "reduced the frequency of myocyte apoptosis"}]}, {"substance": "VEGF", "values": [{"measurement": "Akt2 kinase activity", "setting": "Akt2", "value": "little or no activation of Akt2"}, {"measurement": "cell loss induced by serum-deprivation", "setting": "HUVECs [6]", "value": "completely reversed cell loss induced by serum-deprivation"}, {"measurement": "increase in number of surviving β-galactosidase positive cells (factor)", "setting": "HUVECs [7]", "value": 3}]}]}
